Data from ChEMBL document CHEMBL5154722, “Identification of new potent anticancer derivatives through simplifying the core structure and modification on their 14- hydroxyl group from oridonin” (Eur J Med Chem, 2022).
Active and inactive are the calls of the source. The calls are words filed in the database; no cut-off is given here.

Experiments:
[1] = tested on: K562; assay: Induction of apoptosis in human K562 cells assessed as increase in Bax level at 25 to 100 nM measured after 48 hrs by Western blot analysis; assay type: functional, cell-based; details: dose 25-100 nM
[2] = tested on: MDA-MB-231; assay: Antiproliferative activity against human MDA-MB-231 cells assessed as reduction in cell viability incubated for 72 hrs by MTT assay; assay type: functional, cell-based; details: MDA-MB-231, 72 h
[3] = tested on: SW480; assay: Antiproliferative activity against human SW480 cells assessed as reduction in cell viability incubated for 72 hrs by MTT assay; assay type: functional, cell-based; details: SW480, 72 h
[4] = tested on: MGC-803; assay: Antiproliferative activity against human MGC-803 cells assessed as reduction in cell viability incubated for 72 hrs by MTT assay; assay type: functional, cell-based; details: MGC-803, 72 h
[5] = tested on: HeLa; assay: Antiproliferative activity against human HeLa cells assessed as reduction in cell viability incubated for 72 hrs by MTT assay; assay type: functional, cell-based
[6] = Antiproliferative activity against human U-87 MG cells assessed as reduction in cell viability incubated for 72 hrs by MTT assay; assay type: functional, cell-based, U-87MG ATCC
[7] = tested on: H22; assay: Antiproliferative activity against mouse H22 cells assessed as reduction in cell viability incubated for 72 hrs by MTT assay; assay type: functional, cell-based; details: H22, 72 h
[8] = tested on: K562; assay: Induction of cell cycle arrest in human K562 cells assessed as accumulation of cells at G2 phase at 25 nM measured after 48 hrs by propidium iodide staining-based flow cytometric analysis (reference value: 15.30%); assay type: functional
[9] = tested on: K562; assay: Induction of cell cycle arrest in human K562 cells assessed as accumulation of cells at S phase at 25 nM measured after 48 hrs by propidium iodide staining-based flow cytometric analysis (reference value: 37.29%); assay type: functional
[10] = tested on: K562; assay: Induction of cell cycle arrest in human K562 cells assessed as accumulation of cells at G2 phase at 50 nM measured after 48 hrs by propidium iodide staining-based flow cytometric analysis (reference value: 15.30%); assay type: functional
[11] = tested on: K562; assay: Induction of cell cycle arrest in human K562 cells assessed as accumulation of cells at S phase at 50 nM measured after 48 hrs by propidium iodide staining-based flow cytometric analysis (reference value: 37.29%); assay type: functional
[12] = tested on: K562; assay: Induction of apoptosis in human K562 cells assessed as viable cells at 25 nM measured after 48 hrs by Annexin V-FITC/PI staining based flow cytometry method (reference value: 94.41%); assay type: functional; details: read-out: Activity
[13] = tested on: K562; assay: Induction of apoptosis in human K562 cells assessed as early apoptotic cells at 25 nM measured after 48 hrs by Annexin V-FITC/PI staining based flow cytometry method (reference value: 1.62%); assay type: functional
[14] = tested on: K562; assay: Induction of apoptosis in human K562 cells assessed as necrotic cells at 25 nM measured after 48 hrs by Annexin V-FITC/PI staining based flow cytometry method (reference value: 0.44%); assay type: functional
[15] = tested on: K562; assay: Induction of apoptosis in human K562 cells assessed as early apoptotic cells at 50 nM measured after 48 hrs by Annexin V-FITC/PI staining based flow cytometry method (reference value: 1.62%); assay type: functional
[16] = tested on: K562; assay: Induction of apoptosis in human K562 cells assessed as viable cells at 100 nM measured after 48 hrs by Annexin V-FITC/PI staining based flow cytometry method (reference value: 94.41%); assay type: functional; details: read-out: Activity
[17] = tested on: K562; assay: Induction of apoptosis in human K562 cells assessed as early apoptotic cells at 100 nM measured after 48 hrs by Annexin V-FITC/PI staining based flow cytometry method (reference value: 1.62%); assay type: functional
[18] = tested on: K562; assay: Induction of apoptosis in human K562 cells assessed as late apoptotic cells at 100 nM measured after 48 hrs by Annexin V-FITC/PI staining based flow cytometry method (reference value: 3.53%); assay type: functional
[19] = tested on: K562; assay: Induction of apoptosis in human K562 cells assessed as intracellular ROS generation at 100 uM measured after 48 hrs by DCFH-DA staining based flow cytometry method (reference value: 0.41%); assay type: functional
[20] = tested on: K562; assay: Induction of apoptosis in human K562 cells assessed as reduction in phosphorylated mTOR level measured after 48 hrs by Western blot analysis; assay type: functional, cell-based; details: dose 25-100 nM, DDE = dose-dependent effect
[21] = tested on: K562; assay: Inhibition of MAPK signaling pathway in human K562 cells assessed as reduction in MEK level measured after 48 hrs by Western blot analysis; assay type: cell-based; details: dose 25-100 nM, DDE = dose-dependent effect
[22] = Toxicity in ICR mouse allografted with mouse H22 cells assessed as effect on kidney morphology at 10 to 20 mg/kg, iv administered once a day for 21 days after 7 days of tumor implantation by H and E staining method; assay type: organism-based; details: in vivo, 504 h, dose 10-20 mg/kg, time 21 day

Structure (SMILES): C=C1C(=O)[C@]23[C@H](OC(=O)/C=C/c4ccncc4)[C@H]1CC[C@H]2[C@]12CCCC(C)(C)[C@H]1[C@H](O)[C@@]3(O)OC2
- Activity [1]: Active
- IC50 [2]: 420 nM
- IC50 [3]: 1030 nM
- IC50 [4]: 610 nM
- IC50 [5]: 1130 nM
- IC50 [6]: 840 nM
- IC50 [7]: 230 nM
- Activity [8]: 22.14%
- Activity [9]: 38.36%
- Activity [10]: 26.72%
- Activity [11]: 36.52%
- viability at 0.025 µM [12]: 82.5%
- Activity [13]: 10.6%
- Activity [14]: 0.05%
- Activity [15]: 13.97%
- viability at 0.1 µM [16]: 33%
- Activity [17]: 42.81%
- Activity [18]: 20.92%
- Activity [19]: 63.43%
- Activity [20]: Dde
- Activity [21]: Dde
- Activity [22]: Non-Toxic
